# Assay results as given in the supplement of paper PMC11781733.
# Counter-ions that a name gives are not always drawn.
# Key:
# Conditions in all cases: exposure time: 15 min to 3 h acute
# [1] = test system: Dugesia japonica; experiment: speed in dark vs vehicle (% change vs vehicle); higher = higher incidence or increase relative to vehicle control
# Outline: (§1)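 Crawling speed is given as the median percent change after each worm was normalised to its plate's vehicle median, leaving out worms that crawled out. Fasted, intact Dugesia japonica were placed one per well in 200 μL in 48-well plates and tracked automatically in darkness or during blue-light periods, 15 min to 3 h after exposure in 0.5% DMSO or water vehicle. Runs used eight worms per concentration per plate in technical triplicate (n = 24).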
# [2] = test system: Dugesia japonica; experiment: contracted body shape incidence (% planarians (vehicle-normalised)); higher = higher incidence or increase relative to vehicle control
# Outline: (§2)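 D. japonica planarians (fasted 5–7 days), one per well in 200 μL in sealed 48-well plates, were screened within 15 minutes–3 hours of exposure to at least 5 concentrations. Body shapes (contraction, C-shape, corkscrew, hyperkinesis) were scored manually and blind by a researcher; worms that crawled out were excluded. The value is the incidence of the given shape, or of any abnormal shape, ×100, normalised to in-plate vehicle controls, with negatives set to 0.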
# [3] = test system: Dugesia japonica; experiment: stickiness incidence (% planarians (vehicle-normalised)); higher = higher incidence or increase relative to vehicle control
# Outline: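 Stickiness was scored as a yes-or-no outcome in fasted Dugesia japonica planarians, and incidence was normalised to the vehicle incidence on the same plate. Each worm sat alone in a well of a sealed 48-well plate holding 200 μL of solution and was tested 15 min–3 h after exposure to half- or quarter-log concentration series, with 0.5% DMSO or water as vehicle. Technical triplicates were pooled (n = 24), negative values were set to 0, values were multiplied by 100, and worms that crawled out were excluded.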
# [4] = test system: Dugesia japonica; experiment: crawl-out incidence (% planarians); higher = higher incidence or increase relative to vehicle control
# [5] = test system: Dugesia japonica; experiment: resting fraction in blue light vs vehicle (difference in fraction x100 vs vehicle); higher = higher incidence or increase relative to vehicle control
# Outline: (§3)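 Resting fraction in the dark or under blue light is reported as a median from automated tracking of intact, fasted Dugesia japonica. Worms were held one per well of a 48-well plate in 200 μL and tested 15 min to 3 h after exposure in 0.5% DMSO or water vehicle. Each worm's value was its difference from the plate's vehicle median multiplied by 100, and worms that crawled out were excluded.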
# [6] = test system: Dugesia japonica; experiment: noxious heat displacement strength vs vehicle (% change vs vehicle); higher = higher incidence or increase relative to vehicle control
# Outline: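 In the scrunching assay, displacement strength under noxious heat was tracked automatically in intact, fasted Dugesia japonica and expressed as the median percent change from the plate's vehicle median. Testing took place 15 min to 3 h after exposure in 0.5% DMSO or water vehicle, with one worm per well of a 48-well plate in 200 μL. Eight worms per concentration per plate were tested in technical triplicate (n = 24), and any that crawled out were left out.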
# [7] = test system: Dugesia japonica; experiment: hyperkinesis incidence (% planarians (vehicle-normalised)); higher = higher incidence or increase relative to vehicle control
# Outline: as §2
# [8] = test system: Dugesia japonica; experiment: total locomotor bursts minus vehicle (bursts difference vs vehicle); higher = higher incidence or increase relative to vehicle control
# Outline: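 Planarians of the species Dugesia japonica, fasted beforehand, received half- or quarter-log concentration series in 0.5% DMSO or water, one animal per well of a sealed 48-well plate holding 200 μL solution. They were tested 15 min–3 h after exposure in technical triplicates totalling n = 24. Each animal's count of total locomotor bursts, an unstimulated behaviour obtained by image-based object tracking, had the plate vehicle-control median subtracted without ×100 scaling. The figure given is the median normalised response, with crawled-out worms excluded.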
# [9] = test system: Dugesia japonica; experiment: loss of phototaxis incidence (% planarians (vehicle-normalised)); higher = higher incidence or increase relative to vehicle control
# Outline: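 Intact, fasted Dugesia japonica were tested 15 min to 3 h after exposure in 0.5% DMSO or water vehicle, one per well of a 48-well plate in 200 μL. Automated object tracking was used to score each worm for loss of phototaxis as a yes/no result. With eight worms per concentration per plate in technical triplicate (n = 24), worms that crawled out were excluded. The incidence rate ×100 was normalised to in-plate vehicle controls and negatives were set to 0.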
# [10] = test system: Dugesia japonica; experiment: loss of heat-induced scrunching incidence (% planarians (vehicle-normalised)); higher = higher incidence or increase relative to vehicle control
# Outline: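 The incidence of worms lacking a scrunching response to a noxious heat stimulus, normalised to vehicle controls within each plate, is the value listed. It appears ×100 with negatives set to 0. Single D. japonica planarians in 200 μL per well of 48-well plates were exposed to at least 5 concentrations (n = 24 per concentration) and tested within 15 minutes–3 hours, excluding worms that crawled out.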
# [11] = test system: Dugesia japonica; experiment: corkscrew incidence (% planarians (vehicle-normalised)); higher = higher incidence or increase relative to vehicle control
# Outline: as §2
# [12] = test system: Dugesia japonica; experiment: speed first 30 s blue light vs vehicle (% change vs vehicle); higher = higher incidence or increase relative to vehicle control
# Outline: as §1
# [13] = test system: Dugesia japonica; experiment: C-shape incidence (% planarians (vehicle-normalised)); higher = higher incidence or increase relative to vehicle control
# Outline: as §2
# [14] = test system: Dugesia japonica; experiment: speed second 30 s blue light vs vehicle (% change vs vehicle); higher = higher incidence or increase relative to vehicle control
# Outline: as §1
# [15] = test system: Dugesia japonica; experiment: anxiety (time in outer well region) vs vehicle (% change vs vehicle); higher = higher incidence or increase relative to vehicle control
# Outline: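 Each planarian's time in the outer portion of its well was scored, worms that crawled out were dropped, and the median normalized response is reported. Fasted 5–7 days, D. japonica worms were tested singly in 200 μL in sealed 48-well plates at at least 5 concentrations, n = 24 per concentration, within 15 minutes–3 hours. Each response was normalized by dividing by, or subtracting, the plate vehicle median and multiplying by 100.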
# [16] = test system: Dugesia japonica; experiment: any abnormal body shape incidence (% planarians (vehicle-normalised)); higher = higher incidence or increase relative to vehicle control
# Outline: as §2
# [17] = test system: Dugesia japonica; experiment: resting fraction in dark vs vehicle (difference in fraction x100 vs vehicle); higher = higher incidence or increase relative to vehicle control
# Outline: as §3
# [18] = test system: Dugesia japonica; experiment: pharynx extrusion incidence (% planarians (vehicle-normalised)); higher = higher incidence or increase relative to vehicle control
# Outline: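 Intact, fasted Dugesia japonica were placed one per well in 48-well plates with 200 μL each and scored 15 min to 3 h after exposure in either water or 0.5% DMSO vehicle. Pharynx extrusion was judged manually and blind as a body-shape category. Each concentration used eight worms per plate in technical triplicate (n = 24). Incidence was normalised to vehicle controls on the same plate, negative values were set to 0, and worms that crawled out were excluded.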
SMILES,speed in dark [1],contracted body shape incidence [2],stickiness incidence [3],crawl-out incidence [4],resting fraction in blue light [5],noxious heat displacement strength [6],hyperkinesis incidence [7],total locomotor bursts minus vehicle [8],loss of phototaxis incidence [9],loss of heat-induced scrunching incidence [10],corkscrew incidence [11],speed first 30 s blue light [12],C-shape incidence [13],speed second 30 s blue light [14],anxiety [15],any abnormal body shape incidence [16],resting fraction in dark [17],pharynx extrusion incidence [18]
Cc1ncc2n1-c1ccc(Cl)cc1C(c1ccccc1F)=NC2 [midazolam] (31.6 µM),8.87,0,≤ 0,0,-0.5,-27.4,20.8,-0.5,≤ 0,8.33,0,-1.82,0,23.1,3.09,20.8,-0.404,0
Cc1ncc2n1-c1ccc(Cl)cc1C(c1ccccc1F)=NC2 [midazolam] (56.2 µM),-34,12.5,4.17,0,2.61,-25.6,20.8,2.5,≤ 0,≤ 0,0,-29.6,0,-10.2,7.1,33.3,22.7,0
Cc1ncc2n1-c1ccc(Cl)cc1C(c1ccccc1F)=NC2 [midazolam] (100 µM),-70.7,45.8,20.8,0,68.2,-48.3,70.8,28.5,29.2,45.8,0,-93,20.8,-87.7,2.35,95.8,59.7,4.17
Cc1cc2c(s1)Nc1ccccc1N=C2N1CCN(C)CC1 [olanzapine] (100 µM),-67.8,27.3,27.3,41.7,76,-50.1,45.5,-2.75,7.14,68.2,18.2,-93.9,13.6,-91.1,18.3,77.3,79.9,0
Cc1cc2c(s1)Nc1ccccc1N=C2N1CCN(C)CC1 [olanzapine] (316 µM),-71.2,31.8,22.7,37.5,77.4,-47.4,45.5,7,13.3,72.7,13.6,-94.9,27.3,-89.1,-6.74,81.8,73.9,0
O=C(O)C(=O)O [oxalic acid] (100 µM),-6.93,0,≤ 0,0,1.86,-11.5,12.5,6.5,≤ 0,8.33,0,-25.2,0,-8.31,24.9,12.5,-1.66,0
O=C(O)C(=O)O [oxalic acid] (316 µM),-42.2,0,37.5,0,22.9,-67.5,58.3,31.5,8.33,≤ 0,0,-63.2,0,-69,-24.7,62.5,33,0
O=C(O)C(=O)O [oxalic acid] (1000 µM),-53.2,50,≤ 0,0,63.9,-57,0,4,54.2,83.3,0,-88.1,41.7,-90.4,-19.2,62.5,60.5,0
CN1CCN(CCCN2c3ccccc3Sc3ccc(Cl)cc32)CC1 [prochloroperazine] (3.16 µM),-37.4,4.17,4.17,4.17,-3.15,-46.2,12.5,14.8,17.4,45.8,0,-37.9,0,-55.6,19,16.7,15.2,0
CN1CCN(CCCN2c3ccccc3Sc3ccc(Cl)cc32)CC1 [prochloroperazine] (10 µM),-74.9,4.17,4.17,25,52.9,-55.5,25,12.5,50,66.7,0,-81.4,12.5,-85.8,21.9,37.5,38.3,0
CN1CCN(CCCN2c3ccccc3Sc3ccc(Cl)cc32)CC1 [prochloroperazine] (31.6 µM),-65.5,21.7,≤ 0,20.8,75.3,-47.9,26.1,-3,63.2,65.2,4.35,-89.8,34.8,-83.6,24,73.9,60.9,0
CN1CCN(CCCN2c3ccccc3Sc3ccc(Cl)cc32)CC1 [prochloroperazine] (100 µM),-72.3,75,≤ 0,29.2,82.2,-41.6,0,0.25,76.5,75,5,-91.1,35,-92.9,-100,70,77,0
CNCC[C@H](Oc1cccc2ccccc12)c1cccs1 [s-duloxetine] (3.16 µM),70.8,0,16.7,0,-12.5,-40.2,0,-2.5,≤ 0,25,0,167,0,68.4,12,0,-19,0
CNCC[C@H](Oc1cccc2ccccc12)c1cccs1 [s-duloxetine] (10 µM),124,0,≤ 0,0,-12.1,-38,75,-13,50,8.33,0,142,0,34.6,-1.76,75,-32.6,0
CNCC[C@H](Oc1cccc2ccccc12)c1cccs1 [s-duloxetine] (31.6 µM),-18.7,4.35,≤ 0,4.17,7.14,-61.5,39.1,61,47.8,65.2,0,-45.9,34.8,-62.7,-51.2,73.9,-4.51,26.1
CNCC[C@H](Oc1cccc2ccccc12)c1cccs1 [s-duloxetine] (100 µM),-50.6,34.8,≤ 0,4.17,72.3,-66.8,0,-4.5,56.5,73.9,0,-84,13,-87.5,-57.1,82.6,55.5,65.2
CN[C@H]1CC[C@@H](c2ccc(Cl)c(Cl)c2)c2ccccc21 [sertraline hydrochloride] (3.16 µM),-20.1,0,4.55,8.33,4.62,-5.25,4.55,8,18.2,≤ 0,0,-25.9,0,-31.9,15.3,4.55,1.05,0
